Experimental data published in PubChem BioAssay AID2060896 (Molecular Pharmacology Branch, DTP, NCI, 2025).
Where “and” joins values, the source holds several entries; their conditions need not be identical. Equal values may be shown once.

Test system: 941728-121-R-J1-PDC complex spheroid viability
Test: Anticancer human tumor 941728-121-R-J1-PDC patient-derived lung adenocarcinoma cell line growth inhibition [RAS]
Settings: for viability, T/C: stronger effect = lower value; active = viability on the fitted dose curve at most 10% of control; inactive = the rest
How it was run: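 Tumour cells grown as complex spheroids with HUVEC endothelial cells and mesenchymal stem cells, treated with RAS pathway inhibitor combinations. Each agent spans half-log steps from near clinical Cmax, or 10 microM where Cmax is unknown.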

[1] = curve of first compound, second compound 0.000949 µM
[2] = curve of first compound, second compound 0.003 µM
[3] = curve of first compound, second compound 0.00949 µM
[4] = curve of first compound, second compound 0.03 µM
[5] = curve of first compound, second compound 0.0949 µM
[6] = curve of first compound, second compound 0.3 µM
[7] = second compound 0.000949 µM, first compound 0.0316 µM
[8] = second compound 0.000949 µM, first compound 0.1 µM
[9] = second compound 0.000949 µM, first compound 0.316 µM
[10] = second compound 0.000949 µM, first compound 1 µM
[11] = second compound 0.003 µM, first compound 0.0316 µM
[12] = second compound 0.003 µM, first compound 0.1 µM
[13] = second compound 0.003 µM, first compound 0.316 µM
[14] = second compound 0.003 µM, first compound 1 µM
[15] = second compound 0.00949 µM, first compound 0.0316 µM
[16] = second compound 0.00949 µM, first compound 0.1 µM
[17] = second compound 0.00949 µM, first compound 0.316 µM
[18] = second compound 0.00949 µM, first compound 1 µM
[19] = second compound 0.03 µM, first compound 0.0316 µM
[20] = second compound 0.03 µM, first compound 0.1 µM
[21] = second compound 0.03 µM, first compound 0.316 µM
[22] = second compound 0.03 µM, first compound 1 µM
[23] = second compound 0.0949 µM, first compound 0.0316 µM
[24] = second compound 0.0949 µM, first compound 0.1 µM
[25] = second compound 0.0949 µM, first compound 0.316 µM
[26] = second compound 0.0949 µM, first compound 1 µM
[27] = second compound 0.3 µM, first compound 0.0316 µM
[28] = second compound 0.3 µM, first compound 0.1 µM
[29] = second compound 0.3 µM, first compound 0.316 µM
[30] = second compound 0.3 µM, first compound 1 µM
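Also: spheroids exposed to compounds for 7 days before readout.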
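For viability, T/C in this document: 100% = DMSO vehicle control viability.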

Nc1ccn(C2OC(CO)C(O)C2(F)F)c(=O)n1 (stereo not drawn) + CCn1c(-c2cc(N3CCN(C)CC3)cnc2C(C)OC)c2c3cc(ccc31)-c1csc(n1)CC(NC(=O)C1CC1C)C(=O)N1CCCC(N1)C(=O)OCC(C)(C)C2
< 3.16 nM: IC50 [1] | IC50 [2] | IC50 [3] | IC50 [4] | IC50 [5] | IC50 [6]
inactive: viability, T/C (second compound 0.000949 µM, first compound 0.00316 µM) 25.2% | viability, T/C (second compound 0.000949 µM, first compound 0.01 µM) 25.2% | viability, T/C [7] 16.8% | viability, T/C [8] 21.1% | viability, T/C [9] 21% | viability, T/C [10] 17.1% | viability, T/C (second compound 0.003 µM, first compound 0.00316 µM) 18.2% | viability, T/C (second compound 0.003 µM, first compound 0.01 µM) 16.7% | viability, T/C [11] 13.1% | viability, T/C [12] 15.3% | viability, T/C [13] 16.6% | viability, T/C [14] 12.2% | viability, T/C (second compound 0.00949 µM, first compound 0.00316 µM) 13.2% | viability, T/C (second compound 0.00949 µM, first compound 0.01 µM) 11.3% | viability, T/C [15] 12.9% | viability, T/C [16] 12.9% | viability, T/C [17] 12.4% | viability, T/C [18] 10.5% | viability, T/C (second compound 0.03 µM, first compound 0.00316 µM) 12.4% | viability, T/C (second compound 0.03 µM, first compound 0.01 µM) 11.8% | viability, T/C [19] 10.8% | viability, T/C [20] 10.7% | viability, T/C [21] 10.8% | viability, T/C [22] 10.1% | viability, T/C (second compound 0.0949 µM, first compound 0.00316 µM) 13.3% | viability, T/C (second compound 0.0949 µM, first compound 0.01 µM) 10.6% | viability, T/C [23] 12.8% | viability, T/C [24] 11% | viability, T/C [25] 9.57% | viability, T/C [26] 11% | viability, T/C (second compound 0.3 µM, first compound 0.00316 µM) 10.7% | viability, T/C (second compound 0.3 µM, first compound 0.01 µM) 10.2% | viability, T/C [27] 11% | viability, T/C [28] 10.4% | viability, T/C [29] 10.2% | viability, T/C [30] 11.7%

CCc1c2c(nc3ccc(O)cc13)-c1cc3c(c(=O)n1C2)COC(=O)[C@]3(O)CC
44.2 nM and > 300 nM and 89 nM: IC50 (curve of compound)
inactive: viability, T/C (compound 0.000949 µM) 85.2% [middle of 4 runs] | viability, T/C (compound 0.003 µM) 73.3% [middle of 4 runs] | viability, T/C (compound 0.00949 µM) 62.9% [middle of 4 runs] | viability, T/C (compound 0.03 µM) 67.4% [middle of 4 runs] | viability, T/C (compound 0.0949 µM) 58.9% [middle of 4 runs] | viability, T/C (compound 0.3 µM) 50% [middle of 4 runs]

CC(Nc1ccc2c(c1)OCCn1cc(N3C(=O)OCC3C(F)F)nc1-2)C(N)=O (stereo not drawn) + CCn1c(-c2cccnc2C(C)OC)c2c3cc(ccc31)N1CCOC(CC(NC(=O)C(C(C)C)N(C)C(=O)C3(F)CCN(C(=O)C#CC(C)(C)N(C)C)CC3)C(=O)N3CCCC(N3)C(=O)OCC(C)(C)C2)C1
< 31.6 nM: IC50 [1] | IC50 [2] | IC50 [3] | IC50 [4] | IC50 [5] | IC50 [6]
inactive: viability, T/C [7] 18.5% | viability, T/C [8] 20.6% | viability, T/C [9] 12.5% | viability, T/C [10] 15.8% | viability, T/C (second compound 0.000949 µM, first compound 3.16 µM) 13.3% | viability, T/C (second compound 0.000949 µM, first compound 10 µM) 9.24% | viability, T/C [11] 20.5% | viability, T/C [12] 17.2% | viability, T/C [13] 14.4% | viability, T/C [14] 14.3% | viability, T/C (second compound 0.003 µM, first compound 3.16 µM) 13.8% | viability, T/C (second compound 0.003 µM, first compound 10 µM) 9.35% | viability, T/C [15] 18.9% | viability, T/C [16] 15.3% | viability, T/C [17] 15.1% | viability, T/C [18] 14.7% | viability, T/C (second compound 0.00949 µM, first compound 3.16 µM) 11.5% | viability, T/C (second compound 0.00949 µM, first compound 10 µM) 11.7% | viability, T/C [19] 19.8% | viability, T/C [20] 18% | viability, T/C [21] 14.6% | viability, T/C [22] 15.7% | viability, T/C (second compound 0.03 µM, first compound 3.16 µM) 9.34% | viability, T/C (second compound 0.03 µM, first compound 10 µM) 12.8% | viability, T/C [23] 18.8% | viability, T/C [24] 18.4% | viability, T/C [25] 15.8% | viability, T/C [26] 11.8% | viability, T/C (second compound 0.0949 µM, first compound 3.16 µM) 12.1% | viability, T/C (second compound 0.0949 µM, first compound 10 µM) 13.7% | viability, T/C [27] 19.9% | viability, T/C [28] 18.8% | viability, T/C [29] 14.6% | viability, T/C [30] 14.7% | viability, T/C (second compound 0.3 µM, first compound 3.16 µM) 13.5% | viability, T/C (second compound 0.3 µM, first compound 10 µM) 12.3%

CCc1c2c(nc3ccc(O)cc13)-c1cc3c(c(=O)n1C2)COC(=O)[C@]3(O)CC + CCn1c(-c2cc(N3CCN(C)CC3)cnc2C(C)OC)c2c3cc(ccc31)-c1csc(n1)CC(NC(=O)C1CC1C)C(=O)N1CCCC(N1)C(=O)OCC(C)(C)C2
active: viability, T/C (second compound 0.003 µM, first compound 0.0949 µM) 10.3% | viability, T/C (second compound 0.003 µM, first compound 0.3 µM) 5.76% | viability, T/C (second compound 0.00949 µM, first compound 0.03 µM) 10.5% | viability, T/C (second compound 0.00949 µM, first compound 0.0949 µM) 7.7% | viability, T/C (second compound 0.00949 µM, first compound 0.3 µM) 4.19% | viability, T/C (second compound 0.03 µM, first compound 0.03 µM) 8.62% | viability, T/C (second compound 0.03 µM, first compound 0.0949 µM) 5.46% | viability, T/C (second compound 0.03 µM, first compound 0.3 µM) 4.56% | viability, T/C (second compound 0.0949 µM, first compound 0.00949 µM) 10.6% | viability, T/C (second compound 0.0949 µM, first compound 0.03 µM) 8.43% | viability, T/C (second compound 0.0949 µM, first compound 0.0949 µM) 5.36% | viability, T/C (second compound 0.0949 µM, first compound 0.3 µM) 4.56% | viability, T/C (second compound 0.3 µM, first compound 0.00949 µM) 9.64% | viability, T/C (second compound 0.3 µM, first compound 0.03 µM) 10.6% | viability, T/C (second compound 0.3 µM, first compound 0.0949 µM) 5.65% | viability, T/C (second compound 0.3 µM, first compound 0.3 µM) 3.94%
< 0.949 nM: IC50 [1] | IC50 [2] | IC50 [3] | IC50 [4] | IC50 [5] | IC50 [6]
inactive: viability, T/C (second compound 0.000949 µM, first compound 0.000949 µM) 24.6% | viability, T/C (second compound 0.000949 µM, first compound 0.003 µM) 24.4% | viability, T/C (second compound 0.000949 µM, first compound 0.00949 µM) 19.9% | viability, T/C (second compound 0.000949 µM, first compound 0.03 µM) 20.5% | viability, T/C (second compound 0.000949 µM, first compound 0.0949 µM) 18.1% | viability, T/C (second compound 0.000949 µM, first compound 0.3 µM) 9.95% | viability, T/C (second compound 0.003 µM, first compound 0.000949 µM) 25.8% | viability, T/C (second compound 0.003 µM, first compound 0.003 µM) 16.7% | viability, T/C (second compound 0.003 µM, first compound 0.00949 µM) 12.8% | viability, T/C (second compound 0.003 µM, first compound 0.03 µM) 13.4% | viability, T/C (second compound 0.00949 µM, first compound 0.000949 µM) 17.3% | viability, T/C (second compound 0.00949 µM, first compound 0.003 µM) 10.6% | viability, T/C (second compound 0.00949 µM, first compound 0.00949 µM) 13.3% | viability, T/C (second compound 0.03 µM, first compound 0.000949 µM) 13.7% | viability, T/C (second compound 0.03 µM, first compound 0.003 µM) 14.1% | viability, T/C (second compound 0.03 µM, first compound 0.00949 µM) 9.58% | viability, T/C (second compound 0.0949 µM, first compound 0.000949 µM) 12.9% | viability, T/C (second compound 0.0949 µM, first compound 0.003 µM) 11.2% | viability, T/C (second compound 0.3 µM, first compound 0.000949 µM) 10.8% | viability, T/C (second compound 0.3 µM, first compound 0.003 µM) 10.7%
